What was measured:
Type in all cases: cell-based, mouse
[1] = system: NIH3T3/v-Ras fibroblasts; assay: Soft-agar colony formation assay; conditions: treated every 2-3 days until large colonies evident
Experimental: (§1) FIG. 4. Abrogation of Stat3-dependent viral Src transformation. Viral Src-transformed fibroblasts (NIH3T3/v-Src) and their Ras-transformed counterparts (NIH3T3/v-Ras) were seeded in soft agar and growing cells were treated every 2-3 days with or without the indicated concentrations of PLATINUM-401 until large colonies were evident. Number of colonies of cells in soft agar were counted and expressed as % of control (non-treated) cells. Values are the mean and S.D. of the three independent assays.
(§2) Soft-agar colony formation assays—Colony formation assays were carried out in six-well dishes as previously described (Turkson et al., 1999). In brief, each well contained 1.5 ml of 1% agarose in DMEM as the bottom layer, and 1.5 ml of 0.5% agarose in DMEM containing 4000 or 6000 NIH3T3/v-Src or NIH3T3/v-Ras fibroblasts, respectively, as the top layer. Treatment with PLATINUM-401 was initiated 1 day after seeding cells by adding 75-100 μl of medium with or without compound, and repeated every three days, until large colonies were evident. Colonies were quantified by staining with 20 μl of 1 mg/ml iodonitrotetrazolium violet, incubating at 37° C. overnight and counting the next day.
(§3) PLATINUM-401 was next evaluated for effects on Stat3-mediated v-Src transformation (Turkson et al., 1998; Bromberg et al., 1998; Turkson et al., 1999).

[2] = system: NIH3T3/v-Src fibroblasts; assay: Soft-agar colony formation assay; conditions: treated every 2-3 days until large colonies evident
Experimental: as §1, §2, §3

[3] = system: constitutively-active Stat3 in NIH3T3/v-Src; assay: Constitutive Stat3 DNA-binding activity in treated NIH3T3/v-Src cells (EMSA of nuclear extracts)
Experimental: FIGS. 3A-3D. Inhibition of Stat3-mediated gene expression by PLATINUM-401. (FIG. 3A) and (FIG. 3B) v-Src-transformed mouse fibroblasts that stably express Stat3-dependent (NIH3T3/v-Src/pLucTKS3) and Stat3-independent (NIH3T3/v-Src/pRLSRE) luciferase reporters or β-galactosidase (β-gal), as well as normal mouse fibroblast (NIH3T3) transiently transfected with pLucTKS3, pGL2-VEGF-Luc, NFkB-Luc or pLucSRE together with or without v-Src were treated with or without PLATINUM-401 for 48 h. Cytosolic extracts were then prepared from cells for luciferase and […] activities measurements. Values are the means and S.D. of three to five independent assays; (FIG. 3C) and (FIG. 3D) Nuclear extracts or whole cell lysates were prepared from IL-6-stimulated normal mouse fibroblasts (NIH3T3) or their v-Src-transformed counterpart (NIH3T3/v-Src) that are treated with or without PLATINUM-401 for different times. Samples of equal total proteins were then subjected to in vitro DNA-binding activity and EMSA analysis or for SDS-PAGE and Western blot analysis for phosphorylated and total Stat3.
Nuclear extract preparation and gel shift assays—Nuclear extract preparation from NIH3T3 stimulated by rhIL-6, NIH3T3/hEGFR stimulated by rhEGF, v-Src-transformed fibroblasts (NIH3T3/v-Src) or tumor cell lines and electrophoretic mobility shift assay were carried out as previously described (Turkson et al., 1998; Garcia et al., 1997; Yu et al., 1995). The ^32P-labeled oligonucleotide probes used are hSIE (high affinity sis-inducible element from the c-fos gene, m67 variant, 5′-[…]) (SEQ ID NO:1) that binds Stat1 and Stat3 (Garcia et al., 1997; Wagner et al., 1990) and MGFe (mammary gland factor element from the bovine β-casein gene promoter, 5′-AGATTTCTAGGAATTCAA) (SEQ ID NO:2) for Stat1 and Stat5 binding (49,50). Except where indicated, inhibitor compound was pre-incubated with the nuclear extract for 30 min at room temperature prior to incubation with radiolabeled probe.
To further investigate the activities of PLATINUM-401, the inventors treated malignant cells and measured effects on Stat3 signaling. […] Taken together with the results in FIG. 1, these findings indicate that PLATINUM-401 blocks the binding of activated Stat3 to its responsive elements in the promoters of target genes. Moreover, in a time- and dose-dependent manner, PLATINUM-401 inhibits the constitutive or ligand-induced activation of Stat3 DNA-binding activity (FIG. 3C), as well as tyrosine phosphorylation in mouse fibroblasts (FIG. 3D and data not shown). […] Changes in Stat3 protein levels were minimal. […] Results together indicate that at the 5-10 μM PLATINUM-401 that inhibits intracellular Stat3 signaling, there is no observable non-specific effect on non-Stat3 related pathways investigated here.
To further elucidate the interaction between Stat3 and PLATINUM-401, v-Src-transformed mouse fibroblasts were transfected with Stat3 protein and then used to investigate PLATINUM-401 activity. The transfection of wild-type Stat3 into the v-Src-transformed fibroblasts results in higher Stat3 DNA-binding activity over that of parentals, as measured by in vitro DNA-binding activity and EMSA analysis (FIG. 7C, left panel, lanes 3 and 6 versus 1 and 2). This is due to the increased expression of Stat3 protein and the consequent phosphorylation by oncogenic Src tyrosine kinase that is present in these cells.

Question: Which results are given for CC(O)CN1CCN(CC(C)O)CC1 (stereo not shown) [PLATINUM-401]?
Answer: growth in soft agar [1]: only partially inhibits growth; growth in soft agar [2]: strongly suppresses growth; constitutively-active Stat3 DNA-binding activity, cells transfected with wild-type Stat3 ([3]; NIH3T3/v-Src transfected with exogenous wild-type Stat3, 5 μM, 36 h): no significant reduction; time required for significant inhibition of constitutively-active Stat3 ([3]; NIH3T3/v-Src, data not shown): > 12 h; concentration that inhibits intracellular Stat3 signaling ([3]; mouse fibroblasts): 5 to 10 µM; constitutively-active Stat3 DNA-binding activity, mock-transfected cells ([3]; parental, mock-transfected NIH3T3/v-Src, 5 μM, 36 h): significant reduction; constitutive activation of Stat3 DNA-binding activity ([3]; time- and dose-dependent): inhibits
